US8163909B2, “Substituted hydroxyethyl amine compounds as beta-secretase modulators and methods of use” (Amgen Inc., priority 2007, dated 2012)
Where two headings read alike, the source gives them in different places.

Assays:
[1] = molecular target: Beta Secretase enzyme (BACE) (Homo sapiens, UniProt P56817); test: In vitro enzymatic BACE FRET (fluorescence resonance energy transfer) assay; assay type: biochemical; conditions: BACE enzyme assay, IC50's in uM; read-out: BACE1 FRET assay;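 further: fluorescence read after 1 h with 50 nM quenched peptide substrate spanning the BACE cleavage site, in pH 4.2 acetate buffer containing 10% DMSO and nonionic detergent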
Beta Secretase enzyme (BACE), sequence (P56817 46-501): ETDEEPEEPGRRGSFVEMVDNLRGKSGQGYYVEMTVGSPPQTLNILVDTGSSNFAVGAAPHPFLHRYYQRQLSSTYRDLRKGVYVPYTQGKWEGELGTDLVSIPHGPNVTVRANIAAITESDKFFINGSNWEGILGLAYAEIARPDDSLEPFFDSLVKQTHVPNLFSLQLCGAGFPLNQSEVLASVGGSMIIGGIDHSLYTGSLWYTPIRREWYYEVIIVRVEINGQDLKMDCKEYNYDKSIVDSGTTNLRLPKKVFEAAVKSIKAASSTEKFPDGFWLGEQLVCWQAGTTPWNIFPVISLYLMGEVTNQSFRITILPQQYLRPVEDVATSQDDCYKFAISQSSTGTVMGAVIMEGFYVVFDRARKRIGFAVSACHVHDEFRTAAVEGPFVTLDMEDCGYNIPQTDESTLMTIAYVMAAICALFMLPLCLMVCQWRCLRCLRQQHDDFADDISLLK

[2] = tested on: Aβ40 in conditioned medium of cells stably expressing Amyloid Precursor Protein (APP); test: In vitro BACE cell-based assay (Aβ40 in conditioned medium, sandwich ELISA); conditions: Homo sapiens, IC50's in uM, read-out: HEK cell assay;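 further: compounds added as a dilution series, secreted peptide quantified by europium time-resolved fluorescence readout, potency fitted from percent of control versus compound concentration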
Abeta peptide = test: In vivo inhibition of beta-secretase (reduction of Abeta peptide in brain and cerebrospinal fluid); set-up: species or system rat; conditions: Rattus norvegicus, po, 4 h, orally administered at 30 mg/kg dose, measured after 4 hours;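 further: abeta peptide quantified by sandwich ELISA with electrochemiluminescence readout in rat brain supernatant or CSF, relative to vehicle-dosed control animals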
CYP3A4 (CYP3A) = CYP3A4 (CYP3A) (Homo sapiens, UniProt P08684); test: in vitro; conditions: microsomes, pH 7.4;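 further: inhibition of CYP3A-mediated 1-hydroxymidazolam formation after 10 min incubation with NADPH, quantified by HPLC MS relative to metabolite produced without test compound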
CYP3A4 (CYP3A), sequence (P08684 2-503): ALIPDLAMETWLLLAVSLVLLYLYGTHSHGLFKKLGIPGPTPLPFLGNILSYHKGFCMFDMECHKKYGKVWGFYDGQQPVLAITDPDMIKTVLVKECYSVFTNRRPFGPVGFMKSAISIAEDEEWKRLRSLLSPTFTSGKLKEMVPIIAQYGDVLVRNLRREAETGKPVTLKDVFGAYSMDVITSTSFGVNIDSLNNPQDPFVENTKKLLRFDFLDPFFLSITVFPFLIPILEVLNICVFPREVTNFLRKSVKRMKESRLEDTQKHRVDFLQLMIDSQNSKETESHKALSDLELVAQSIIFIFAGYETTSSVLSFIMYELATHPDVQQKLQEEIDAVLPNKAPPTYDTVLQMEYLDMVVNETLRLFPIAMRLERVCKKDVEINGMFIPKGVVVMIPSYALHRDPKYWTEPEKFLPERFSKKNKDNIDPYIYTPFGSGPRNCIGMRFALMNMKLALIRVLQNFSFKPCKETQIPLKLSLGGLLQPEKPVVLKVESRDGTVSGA

[3] = Microsomal stability assay, rat liver microsomes; conditions: rat liver microsomal data;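 further: rat liver microsomes (0.25 mg/mL) with about 1 µM compound plus 1 mM NADPH, pH 7.4, 37 °C for 30 min, parent left measured by LC-MS/MS against 0 min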
[4] = Microsomal stability assay, human liver microsomes; conditions: human liver microsomal data;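 further: pooled human liver microsomes at 0.25 mg/mL with 1 µM compound and NADPH at 37 °C, pH 7.4, for 30 min, unchanged parent quantified by LC-MS/MS against the 0 min sample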
CYP2D6 = CYP2D6 (Homo sapiens, UniProt P10635); test: CYP2D6 inhibition assay (bufuralol, pooled human liver microsomes)
CYP2D6, sequence (P10635 whole entry): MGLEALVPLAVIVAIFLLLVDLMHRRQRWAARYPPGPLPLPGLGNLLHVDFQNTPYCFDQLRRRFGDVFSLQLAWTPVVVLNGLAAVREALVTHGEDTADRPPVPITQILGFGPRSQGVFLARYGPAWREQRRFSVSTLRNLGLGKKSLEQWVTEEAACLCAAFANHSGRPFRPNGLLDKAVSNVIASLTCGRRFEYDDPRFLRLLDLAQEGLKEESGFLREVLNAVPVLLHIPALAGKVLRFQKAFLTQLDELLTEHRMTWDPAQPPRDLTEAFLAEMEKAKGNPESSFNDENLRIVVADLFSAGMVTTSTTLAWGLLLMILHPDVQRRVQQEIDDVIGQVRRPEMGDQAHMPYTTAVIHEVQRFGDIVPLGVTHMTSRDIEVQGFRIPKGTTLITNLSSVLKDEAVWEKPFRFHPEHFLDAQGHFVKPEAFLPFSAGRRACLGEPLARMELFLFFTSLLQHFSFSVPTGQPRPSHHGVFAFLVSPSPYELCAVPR

[5] = human, microsomes, 1 μM, pH 7.4
[6] = rat, microsomes, 1 μM, pH 7.4
[7] = rat brain, read-out: percent reduction of abeta peptide in the brain of the rat
[8] = rat cerebrospinal fluid, read-out: percent reduction of abeta peptide in the cerebrospinal fluid of the rat
[9] = 2D6 IC50 (uM), CYP enzyme inhibition
[10] = HEK293, cell-based assay, HEK cells
[11] = 2D6 IC50, CYP enzyme inhibition

| Structure (SMILES) | IC50 [1] [µM] | IC50 ([2]; HEK293, HEK cell-based assay) [µM] | inhibition in vivo at 30 mg/kg (Abeta peptide; [7]) [%] | inhibition in vivo at 30 mg/kg (Abeta peptide; [8]) [%] | IC50 (CYP3A4 (CYP3A)) [nM] | RLM [3] [µL/min/mg] | HLM [4] [µL/min/mg] | IC50 (CYP2D6; [9]) [µM] | IC50 [2, 10] [µM] | IC50 (CYP2D6; [11]) [µM] | IC50 at 10 min (CYP2D6; human, pooled human liver microsomes, pH 7.4, probe bufuralol, about 5 μM, 2D6 IC50, CYP enzyme inhibition) [nM] | HLM [5] [µL/min/mg] | RLM [6] [µL/min/mg] |
| --- | --- | --- | --- | --- | --- | --- | --- | --- | --- | --- | --- | --- | --- |
| COCC(=O)N[C@@H](Cc1cc(F)cc(-c2nccs2)c1)[C@H](O)CN[C@H]1CC2(CCC2)Oc2cnc(CC(C)(C)C)cc21 [Example 782, N-((1S,2R)-3-(((4′S)-6′-(2,2-dimethylpropyl)-3′,4′-dihydrospiro[cyclobutane-1,2′-pyrano[2,3-c]pyridin]-4′-yl)amino)-1-(3-fluoro-5-(1,3-thiazol-2-yl)benzyl)-2-hydroxypropyl)-2-methoxyacetamide] | 0.015 | 0.036 | 5 to 80 | 10 to 80 | 300 | 130 | 94 | 0.4 | – | – | – | – | – |
| COC(OC)C(=O)N[C@@H](Cc1cccc(-c2nccs2)c1)[C@H](O)CN[C@H]1CC2(CCC2)Oc2ncc(CC(C)C)cc21 [Example 816, N-((1S,2R)-2-hydroxy-3-(((4′S)-6′-(2-methylpropyl)-3′,4′-dihydrospiro[cyclobutane-1,2′-pyrano[2,3-b]pyridin]-4′-yl)amino)-1-(3-(1,3-thiazol-2-yl)benzyl)propyl)-2,2-dimethoxyacetamide] | 0.008 | 0.024 | 5 to 80 | 10 to 80 | 300 | 44 | 46 | 0.7 | – | – | – | – | – |
| COC(OC)C(=O)N[C@@H](Cc1cccc(-c2ncco2)c1)[C@H](O)CN[C@H]1CC2(CCC2)Oc2ncc(CC(C)(C)C)cc21 [Example 826, N-((1S,2R)-3-(((4′S)-6′-(2,2-dimethylpropyl)-3′,4′-dihydrospiro[cyclobutane-1,2′-pyrano[2,3-b]pyridin]-4′-yl)amino)-2-hydroxy-1-(3-(1,3-oxazol-2-yl)benzyl)propyl)-2,2-dimethoxyacetamide] | 0.012 | 0.013 | 5 to 80 | 10 to 80 | 200 | 55 | 66 | 0.9 | – | – | – | – | – |
| C#Cc1cccc(C[C@H](NC(=O)COC)[C@H](O)CN[C@H]2CC3(CCC3)Oc3ncc(CC(C)(F)F)cc32)c1 [Example 829] | 0.007 | 0.016 | ≥ 30 | – | 200 | 23 | 40 | 2.3 | – | – | – | – | – |
| CO[C@H](C)C(=O)N[C@@H](Cc1cccc(-c2nccs2)c1)[C@H](O)CN[C@H]1CC2(CCC2)Oc2ncc(CC(C)(C)F)cc21 [Example 831, (2R)-N-((1S,2R)-3-(((4′S)-6′-(2-fluoro-2-methylpropyl)-3′,4′-dihydrospiro[cyclobutane-1,2′-pyrano[2,3-b]pyridin]-4′-yl)amino)-2-hydroxy-1-(3-(1,3-thiazol-2-yl)benzyl)propyl)-2-methoxypropanamide] | 0.024 | 0.047 | – | 10 to 80 | 200 | 45 | 21 | 0.8 | – | – | – | – | – |
| CO[C@H](C)C(=O)N[C@@H](Cc1cccc(-c2ncco2)c1)[C@H](O)CN[C@H]1CC2(CCC2)Oc2ncc(CC(C)(C)C)cc21 [Example 836, (2R)-N-((1S,2R)-3-(((4′S)-6′-(2,2-dimethylpropyl)-3′,4′-dihydrospiro[cyclobutane-1,2′-pyrano[2,3-b]pyridin]-4′-yl)amino)-2-hydroxy-1-(3-(1,3-oxazol-2-yl)benzyl)propyl)-2-methoxypropanamide] | 0.013 | 0.015 | – | 10 to 80 | 200 | 56 | 56 | 0.7 | – | – | – | – | – |
| C#Cc1cc(C[C@H](NC(=O)COCC)[C@H](O)CN[C@H]2CC3(CCC3)Oc3ncc(CC(C)(C)C)cc32)ccc1F [Example 837] | 0.007 | 0.023 | – | 10 to 80 | 100 | 72 | 29 | 1.6 | – | – | – | – | – |
| C#Cc1cccc(C[C@H](NC(=O)C(OC)OC)[C@H](O)CN[C@H]2CC3(CCC3)Oc3ncc(CC(C)(C)C)cc32)c1 [Example 844] | 0.005 | 0.006 | – | ≥ 50 | 100 | 44 | 32 | 1.5 | – | – | – | – | – |
| CNc1nc(CC(C)(C)C)cc2c1OC1(CCC1)C[C@@H]2NC[C@@H](O)[C@H](Cc1cc(F)cc(-c2nccs2)c1)NC(=O)COC [Example 847] | 0.044 | – | 5 to 80 | ≥ 50 | 400 | 201 | 102 | – | 0.01 | 0.8 | – | – | – |
| C#Cc1cccc(C[C@H](NC(=O)[C@@H](C)OC)[C@H](O)CN[C@H]2CC3(CCC3)Oc3ncc(CC(C)(C)C)cc32)c1 [Example 849, (2R)-N-((1S,2R)-3-(((4′S)-6′-(2,2-dimethylpropyl)-3′,4′-dihydrospiro[cyclobutane-1,2′-pyrano[2,3-b]pyridin]-4′-yl)amino)-1-(3-ethynylbenzyl)-2-hydroxypropyl)-2-methoxypropanamide] | 0.005 | – | – | ≥ 50 | 50 | 43 | 18 | – | 0.008 | 3.2 | – | – | – |
| CC(C)(C)Cc1cnc2c(c1)[C@@H](NC[C@@H](O)[C@H](Cc1cc(F)cc(-c3nccs3)c1)NC(=O)C1CCC1)CC1(CCC1)O2 [Example 875] | 0.006 | – | 5 to 80 | – | 200 | 81 | 65 | – | 0.02 | 0.3 | – | – | – |
| CC(C)(C)Cc1cnc2c(c1)[C@@H](NC[C@@H](O)[C@H](Cc1cc(F)cc(-c3nccs3)c1)NC(=O)[C@@H]1CCCO1)CC1(CCC1)O2 [Example 879] | 0.006 | – | 5 to 80 | – | 200 | 77 | 96 | – | 0.007 | – | 600 | – | – |
| C#Cc1ccc(F)c(C[C@H](NC(=O)[C@@H](C)OC)[C@H](O)CN[C@H]2CC3(CCC3)Oc3ncc(CC(C)(C)C)cc32)c1 [Example 902] | 0.006 | – | – | 10 to 80 | 100 | 70 | 36 | – | 0.026 | 0.9 | – | – | – |
| COCC(=O)N[C@@H](Cc1cc(F)cc(F)c1)[C@H](O)CN[C@H]1CC2(CCC2)Oc2c1cc([C@H]1CC1(C)C)nc2-c1ccncc1 [compound 678] | – | – | – | – | – | – | – | – | – | – | – | 23 | 79 |
| COCC(=O)N[C@@H](Cc1cccc(-c2nccs2)c1)[C@H](O)CN[C@H]1C[C@@]2(CCOC2)Oc2ncc(CC(C)(C)C)cc21 [compound 814, N-((1S,2R)-3-(((3S,4′S)-6′-(2,2-dimethylpropyl)-3′,4,4′,5-tetrahydrospiro[furan-3,2′-pyrano[2,3-b]pyridin]-4′-yl)amino)-2-hydroxy-1-(3-(1,3-thiazol-2-yl)benzyl)propyl)-2-methoxyacetamide] | – | – | – | – | – | – | – | – | – | – | – | 40 | 112 |
| COCC(=O)N[C@@H](Cc1cccc(-c2nccs2)c1)[C@H](O)CN[C@H]1C[C@]2(CCOC2)Oc2ncc(CC(C)(C)C)cc21 [compound 822] | – | – | – | – | – | – | – | – | – | – | – | 54 | 101 |
| COCC(=O)N[C@@H](Cc1cccc(-c2nccs2)c1)[C@H](O)CN[C@H]1C[C@@]2(CCOC2)Oc2ncc(CC(C)(C)C)cc21 [compound 823, N-((1S,2R)-3-(((3S,4′S)-6′-(2,2-dimethylpropyl)-3′,4,4′,5-tetrahydrospiro[furan-3,2′-pyrano[2,3-b]pyridin]-4′-yl)amino)-2-hydroxy-1-(3-(1,3-thiazol-2-yl)benzyl)propyl)-2-methoxyacetamide] | – | – | – | – | – | – | – | – | – | – | – | 57 | 171 |
| C#Cc1cccc(C[C@H](NC(=O)COC)[C@H](O)CN[C@H]2C[C@]3(CCOC3)Oc3ncc(CC(C)(C)C)cc32)c1 [compound 824] | – | – | – | – | – | – | – | – | – | – | – | 21 | 28 |
| COCC(=O)N[C@@H](Cc1cccc(-c2nccs2)c1)[C@H](O)CN[C@H]1C[C@]2(CCOC2)Oc2ncc(CC(C)(C)C)cc21 [compound 845] | – | – | – | – | – | – | – | – | – | – | – | 64 | 152 |
| COCC(=O)N[C@@H](Cc1cccc(-c2nccs2)c1)[C@H](O)CN[C@H]1C[C@@]2(CCOC2)Oc2ncc(CC(C)(C)C)cc21 [compound 846, N-((1S,2R)-3-(((3S,4′S)-6′-(2,2-dimethylpropyl)-3′,4,4′,5-tetrahydrospiro[furan-3,2′-pyrano[2,3-b]pyridin]-4′-yl)amino)-2-hydroxy-1-(3-(1,3-thiazol-2-yl)benzyl)propyl)-2-methoxyacetamide] | – | – | – | – | – | – | – | – | – | – | – | 82 | 128 |
